Source: patent publication US12594263B2, “CBL inhibitors and compositions for expansion of immune cells” (Nurix Therapeutics, Inc., priority 2019, dated 2026)
“Also recorded” adds a separate entry of the source.

Columns and labels:
[1] = system: E.G7-OVA tumors; experiment: Adoptive transfer of ex vivo expanded OT-1 cells into E.G7-OVA tumor-bearing mice: tumor volume and survival; format: in vivo, mouse
Experimental: (§1) Dead cells were removed (Miltenyi Biotec Cat #130-090-101) prior to transfer in vivo to monitor their trafficking and function in an EG.7 lymphoma model, which expresses the OVA antigen. Approximately five million cells per mouse were transferred to mice having an average tumor burden of about 70 mm^3. Following in vivo transfer of the OT-1 cells, antitumor response was monitored over time and the quality and quantity of immune response were assessed at various time points.
(§2) The expanded OT-1 cells were characterized by FACS analysis and transferred into E.G7-OVA mice, which bear ovalbumin (OVA) expressing tumors. Following in vivo transfer of expanded OT-1 cells, antitumor response was monitored over time and the quality and quantity of immune response was assessed at various time points. Analysis included FACS analysis on blood, tumor, and spleen samples. Analysis also included re-stimulation of splenocytes with OVA Class I peptide to evaluate the multifunctionality of the antigen-specific effector T cells.
(§3) On Day 0, E.G7-OVA cells were implanted into each mouse. On Day 5, approximately 5×10^6 in vitro expanded OT-1 cells were injected into the tail of each mouse. On Day 9, blood was analyzed by FACS. On Day 14, blood, tumor and spleen samples were analyzed by FACS. On Day 27, blood was analyzed by FACS. Tumor volume was measured approximately every five days through about 50 days post implant.

[2] = Compound stability in complete RPMI with 10% human serum (mass spectrometry); format: physicochemical
Experimental: To assess compound stability, at day 1, 1 μM compound 103 or DMSO was added to complete RMPI containing 10% human serum and stored at either 4° C., 22° C. or 37° C. over an 11 day time period. Concentration of compound 103 was assessed at each indicated timepoint and storage temperature by mass spectrometry. Compound 103 was stable for at least 11 days in RPMI medium (FIG. 33).

[3] = system: human T cells from peripheral blood mononuclear cells; experiment: Expansion of CMV pp65 reactive T cells from peripheral blood mononuclear cells; format: cell-based; conditions: for Percentage of total cell number relative to IL-2 alone on day 11: alone or with IL-2 2 ng/mL
Excerpt: At day eleven, cells were pooled and counted, and immunophenotyped at day 11 by flow cytometry by measuring expression of lineage (CD4, CD8) and differentiation (including CD45RA, CD45RO, CD95, CCR7, CD62L, TCF1, PD-1, TIM3, LAG3) markers.

[4] = system: human tumor-infiltrating lymphocytes (TIL); experiment: Rapid Expansion Protocol (REP) of TIL; format: cell-based; conditions: alone or with IL-2 6000 IU/mL
Experimental: PBMC, OKT3 antibody (30 ng/mL), complete medium (“CM”), AIM V media (GIBCO/BRL), and TIL effector cells were combined, mixed, and aliquoted to a 75 cm^2 tissue culture flask. Flasks were incubated upright at 37° C. in 5% CO2. […] About 14 days after initiation of the REP, cells were harvested and cryopreserved for future experimental analysis.

[5] = system: E.G7-OVA tumor cells; experiment: Tumor re-challenge of long term survivors 149 days after OT-1 transfer; format: in vivo, mouse
Excerpt: To determine whether OT-1 cells are capable of long-term tumor protection, the long term survivors of the above experiment (FIG. 12) were re-challenged with a lethal dose of E.G7-OVA tumor cells 149 days after the initial adoptive transfer of the in vitro expanded OT-1 cells. Re-challenge induced OT-1 cell expansion at the site engrafted with E.G7-OVA tumor cells expressing ovalbumin antigen, thereby effectively controlling tumor growth (FIG. 21).

[6] = system: OT-1 cells; experiment: In vivo frequency, persistence and exhaustion markers of transferred OT-1 cells (blood, spleen, tumor, FACS); parameters: species or system mouse
Experimental: as §1, §2, §3
OT-1 cells were expanded according to the previous examples and administered to E.G7-OVA mice, which bear ovalbumin (OVA) expressing tumors. The cells were evaluated for their in vivo properties.
Expanded OT-1 cells were assessed in blood 4 days and 22 days after transfer.
Expanded OT-1 cells were assessed in tumors 4 days after transfer.

[7] = system: OT-1 CD8+ T cells; experiment: Ex vivo expansion and immunophenotyping of OT-1 CD8+ T cells; format: cell-based, mouse; conditions: 1 μM, three days, plate-bound anti-CD3
Excerpt: Antigen specific T cells from transgenic mice can be leveraged as a model for CAR T or TIL expansion ex vivo with a Cbl inhibitor. The OT-1 transgenic animals, that are commercially available, have CD8 T cells that recognize OVA peptide aa 257-264 when presented by the MHC I molecule. CD8+ T cells from OT-1 mice were isolated from a single cell suspension of splenocytes by negative selection (StemCell Technologies cat #19853 EasySep™ Mouse CD8+ T Cell Isolation Kit). Cell were then resuspended in complete media (RPMI1640, 10% heat inactivated FBS, 1× Penicillin/Streptomycin, 1× Glutamine and β-mercaptoethanol) at concentration of 0.5×10^6 per mL. Six well tissue culture plates (Falcon) were coated with 2 ug/mL of anti-mouse CD3 (Bio Xcell Cat #BE0001-1-R100 mg InVivoMAb anti-mouse CD3ε Clone: 145-2C11) for >3 hrs at 37° C. and washed with PBS (MediaTech) prior to cell addition. […] Following three days of OT-1 T cell activation and expansion the cells were collected, counted and immunophenotyped by flow cytometry by measuring expression of differentiation and additional T cell makers including: CD3, CD4, CD8, CD45, CD25, Granzyme B, CD107a, CD127, PD-1, TIM3, LAG3, KLRG-1, ICOS, TCF1, Ki67, T-bet and FOXP3.

[8] = second study, anti-CD3 stimulated OT-1 cells

## C[C@@H]1CN(Cc2cc3c(c(C(F)(F)F)c2)CN(c2cccc(C4(Cc5nncn5C)COC4)c2)C3=O)CCC1(F)F [Compound 103]
[1]; 3-day ex vivo exposure, alone or in combination with IL-2
  Anti-tumor phenotype of transferred T cells: conferred a lasting anti-tumor phenotype for over a month
[1]; expansion at 1 μM, IL-2 300 IU, E.G7-OVA mice
  Potency of expanded CD8+ OT-1 cells (tumor volume, FIGS. 11A and 11B): at least as potent as CD8+OT-1 cells expanded with IL-2
[1]; mice subcutaneously implanted with E.G7-OVA cells
  Rejection of established tumors by expanded OT-1 cells (FIG. 9): potent effectors capable of rejecting established tumors
[1]; [8]
  Long-term survival (FIG. 12B): improved long-term survival
  Potency of expanded OT-1 cells, inhibition of tumor growth (FIG. 12A): increased potency compared to IL-2 expanded cells; also recorded: increased potency compared to TL-2 expanded cells
[2]; 1 μM, complete RPMI with 10% human serum, 4° C., 22° C. or 37° C. (FIG. 33)
  Stability in RPMI medium: at least 11 days
[2]; 4° C.-37° C., FIG. 33
  Stability at multiple temperatures (figure legend): stable at multiple temperatures (4° C.-37° C.) over an 11 day period
[3]; Donor 1, 0.1 μM Cbl-i
  Percentage of total cell number relative to IL-2 alone on day 11: 12%
[3]; Donor 1, 1.0 μM Cbl-i
  Percentage of total cell number relative to IL-2 alone on day 11: 12%
[3]; Donor 1, 10 μM Cbl-i
  Percentage of total cell number relative to IL-2 alone on day 11: 44%
[3]; Donor 2, 0.1 μM Cbl-i
  Percentage of total cell number relative to IL-2 alone on day 11: 70%
[3]; Donor 2, 1.0 μM Cbl-i
  Percentage of total cell number relative to IL-2 alone on day 11: 95%
[3]; Donor 2, 10 μM Cbl-i
  Percentage of total cell number relative to IL-2 alone on day 11: 45%
[3]; Donor 3, 1.0 μM Cbl-i
  Percentage of total cell number relative to IL-2 alone on day 11: 75%
[3]; Donor 3, 10 μM Cbl-i
  Percentage of total cell number relative to IL-2 alone on day 11: 38%
[3]; PBMC, no IL-2
  Expansion of T cells in the absence of IL-2: considerable expansion of T cells
[4]; TIL1 (ovary), 0.1 μM Cbl-i
  Percentage of total cell number relative to IL-2 alone on day 42 (Pre-REP and REP): 40%
[4]; TIL1 (ovary), 1.0 μM Cbl-i
  Percentage of total cell number relative to IL-2 alone on day 42 (Pre-REP and REP): 42%
[4]; TIL1 (ovary), 10 μM Cbl-i
  Percentage of total cell number relative to IL-2 alone on day 42 (Pre-REP and REP): 32%
[4]; TIL3 (ovary), 1.0 μM Cbl-i
  Percentage of total cell number relative to IL-2 alone on day 42 (Pre-REP and REP): 150%
[4]; TIL4 (colon), 0.1 μM Cbl-i
  Percentage of total cell number relative to IL-2 alone on day 42 (Pre-REP and REP): 80%
[4]; TIL4 (colon), 1.0 μM Cbl-i
  Percentage of total cell number relative to IL-2 alone on day 42 (Pre-REP and REP): 80%
[4]; TIL6 (ovary), 0.1 μM Cbl-i
  Percentage of total cell number relative to IL-2 alone on day 42 (Pre-REP and REP): 51%
[4]; TIL6 (ovary), 1.0 μM Cbl-i
  Percentage of total cell number relative to IL-2 alone on day 42 (Pre-REP and REP): 63%
[4]; TIL6 (ovary), 10 μM Cbl-i
  Percentage of total cell number relative to IL-2 alone on day 42 (Pre-REP and REP): 49%
[5]; OT-1 cells expanded in vitro
  Protection from tumor re-challenge (FIG. 21): potent memory cells capable of protecting mice from tumor re-challenge
[5]; before re-challenge (FIG. 22A)
  Number of OT-1 cells in blood 149 days after initial adoptive transfer: higher number in the blood
[5]; day 5 after tumor re-challenge, versus IL-2 alone (FIG. 22B)
  Recall response, number of OT-1 cells per ml of blood: significantly more rapid recall response
[6]; OT-1 cells after transfer
  Cells expressing stem markers TCF1+, PD-1+ and TIM-3+: greater percentage of cells that expressed stem markers
[6]; blood, 4 or 9 days after transfer (FIG. 10)
  Frequency of OT-1 cells in total CD8+ T cells and CD45+ cells and persistence: higher frequency in total CD8+ T cells and CD45+ cells and in vivo persistence in the blood
[6]; blood, 4 days and 22 days after transfer (FIGS. 13A, 13B)
  Frequency of OT-1 cells in total CD45+ cells and persistence: higher frequency in total CD45+ cells and persisted longer than cells expanded with IL-2 alone
[6]; tumor, versus IL-2 alone (FIGS. 14B, 14C)
  Expression of exhaustion markers PD1, TIM3, LAG3: lower level of expression of exhaustion markers
[6]; tumors, 4 days after transfer (FIG. 14A)
  Tumor infiltration, frequency of OT-1 cells in total CD45+ cells: increased ability to infiltrate the tumor
[7]
  Effector function of expanded OT-1 cells (granzyme and T-bet): trend of increased effector function
